Data from patent publication US8802678B2, “Carbonylated (aza) cyclohexanes as dopamine D3 receptor ligands” (Bioprojet, priority 2006, dated 2014).

**Q.** With CC(=O)CN1CCC(CCN2CCN(c3cccc(C(O)C(C)C)c3)CC2)CC1 (centres unmarked) [Example 608, 1-[4-(2-{4-[3-(1-Hydroxy-2-methylpropyl)phenyl]piperazin-1-yl}ethyl)piperidin-1-yl]propan-2-one] as the molecule, how does the melting point read?
**A.** 78 °C

**Q.** For N#CCC(=O)N[C@H]1CC[C@@H](CCN2CCN(c3ccc(C(F)(F)F)cc3)CC2)CC1 [Example 613, 2-Cyano-N-(4-{2-[4-(4-trifluoromethylphenyl)piperazin-1-yl]ethyl}cyclohexyl)acetamide], which melting point is on record?
**A.** 156 °C

**Q.** For COCCCC(=O)N[C@H]1CC[C@H](CCN2CCN(c3cc(C(F)(F)F)ccc3F)CC2)CC1 [Example 616, N-(4-{2-[4-(2-Fluoro-5-trifluoromethylphenyl)piperazin-1-yl]ethyl}cyclohexyl)-4-methoxybutanamide], which melting point is on record?
**A.** 177 °C

**Q.** With CC(=O)CN1CCC(CCN2CCN(c3ccc(C)c(Cl)c3)CC2)CC1 [Example 618, 1-(4-{2-[4-(3-Chloro-4-methylphenyl)piperazin-1-yl]ethyl}piperidin-1-yl)propan-2-one] as the molecule, how does the melting point read?
**A.** 103 °C

**Q.** With CC(=O)CN1CCC(CCN2CCN(c3ccc(F)c(Cl)c3F)CC2)CC1 [Example 623, 1-(4-{2-[4-(3-Chloro-2,4-difluorophenyl)piperazin-1-yl]ethyl}piperidin-1-yl)propan-2-one] as the molecule, how does the melting point read?
**A.** 82 °C

**Q.** With NC(=O)CCC(=O)N[C@H]1CC[C@H](CCN2CCN(c3cc(C(F)(F)F)ccc3F)CC2)CC1 [Example 631, N-(4-{2-[4-(2-Fluoro-5-trifluoromethylphenyl)piperazin-1-yl]ethyl}cyclohexyl)succinamide] as the molecule, how does the melting point read?
**A.** 238 °C

**Q.** Which melting point does the source give for CC(=O)CN1CCC(CCN2CCN(c3cccc(CO)c3)CC2)CC1 [Example 640, 1-(4-{2-[4-(3-Hydroxymethylphenyl)piperazin-1-yl]ethyl}piperidin-1-yl)propan-2-one] here?
**A.** 84 °C

**Q.** With CC(=O)CN1CCC(CCN2CCN(c3ccc4c(c3)CCCCC4)CC2)CC1 [Example 642, 1-(4-{2-[4-(6,7,8,9-Tetrahydro-5H-benzocyclohepten-2-yl)piperazin-1-yl]ethyl}piperidin-1-yl)propan-2-one] as the molecule, how does the melting point read?
**A.** 98 °C

**Q.** For N#CCCC(=O)N[C@H]1CC[C@H](CCN2CCN(c3ccc(C(F)(F)F)cc3)CC2)CC1 [Example 643, 3-Cyano-N-(4-{2-[4-(4-trifluoromethylphenyl)piperazin-1-yl]ethyl}cyclohexyl) propanamide], which melting point is on record?
**A.** 207 °C

**Q.** For N#CCCC(=O)N[C@H]1CC[C@H](CCN2CCN(c3cccc(C#N)c3)CC2)CC1 [Example 644, 3-Cyano-N-(4-{2-[4-(3-cyanophenyl)piperazin-1-yl]ethyl}cyclohexyl)propanamide], which melting point is on record?
**A.** 160 °C

**Q.** Which melting point does the source give for N#CCC(=O)N[C@H]1CC[C@H](CCN2CCN(c3ccc(C(F)(F)F)cc3F)CC2)CC1 [Example 645, 2-Cyano-N-(4-{2-[4-(2-fluoro-4-trifluoromethylphenyl)piperazin-1-yl]ethyl}cyclohexyl) acetamide] here?
**A.** 212 °C

**Q.** With N#CCCCC(=O)N[C@H]1CC[C@H](CCN2CCN(c3ccc(C(F)(F)F)cc3F)CC2)CC1 [Example 646, 4-Cyano-N-(4-{2-[4-(2-fluoro-4-trifluoromethylphenyl)piperazin-1-yl]ethyl}cyclohexyl)-butanamide] as the molecule, how does the melting point read?
**A.** 165 °C

**Q.** Which melting point does the source give for COCCCC(=O)N[C@H]1CC[C@H](CCN2CCN(c3ccc(F)c(F)c3F)CC2)CC1 [Example 652, 4-Methoxy-N-(4-{2-[4-(2,3,4-trifluorophenyl)piperazin-1-yl]ethyl}cyclohexyl)butanamide] here?
**A.** 203 °C

**Q.** Which melting point does the source give for N#Cc1cccc(N2CCN(CC[C@H]3CC[C@H](NC(=O)CCC(F)(F)F)CC3)CC2)c1 [Example 653, N-(4-{2-[4-(3-Cyanophenyl)piperazin-1-yl]ethyl}cyclohexyl)-4,4,4-trifluorobutanamide] here?
**A.** 176 °C

**Q.** With CC(=O)CN1CCC(CCN2CCN(c3ccc(F)c(F)c3F)CC2)CC1 [Example 656] as the molecule, how does the melting point read?
**A.** 88 °C

**Q.** With CC(=O)CN1CCC(CCN2CCN(c3ccc(F)c(C#N)c3)CC2)CC1 [Example 659, 2-Fluoro-5-(4-{2-[1-(2-oxopropyl)piperidin-4-yl]ethyl}piperazin-1-yl)benzonitrile] as the molecule, how does the melting point read?
**A.** 102 °C

**Q.** With N#CCC(=O)N[C@H]1CC[C@H](CCN2CCN(c3ccc(F)c(C#N)c3)CC2)CC1 [Example 660, 2-Cyano-N-(4-{2-[4-(3-cyano-4-fluorophenyl)piperazin-1-yl]ethyl}cyclohexyl)acetamide] as the molecule, how does the melting point read?
**A.** 185 °C

**Q.** With COCCCC(=O)N[C@H]1CC[C@H](CCN2CCN(c3ccc(F)c(C#N)c3)CC2)CC1 [Example 661, N-(4-{2-[4-(3-Cyano-4-fluorophenyl)piperazin-1-yl]ethyl}cyclohexyl)-4-methoxybutanamide] as the molecule, how does the melting point read?
**A.** 197 °C

**Q.** For N#CCCCC(=O)N[C@H]1CC[C@H](CCN2CCN(c3ccc(F)c(C#N)c3)CC2)CC1 [Example 662, 4-Cyano-N-(4-{2-[4-(3-cyano-4-fluorophenyl)piperazin-1-yl]ethyl}cyclohexyl)butanamide], which melting point is on record?
**A.** 158 °C

**Q.** Which melting point does the source give for CC(=O)CN1CCC(CCN2CCN(c3cc(F)ccc3F)CC2)CC1 [Example 663, 1-(4-{2-[4-(2,5-Difluorophenyl)piperazin-1-yl]ethyl}piperidin-1-yl)propan-2-one] here?
**A.** 90 °C

**Q.** With N#CCC(=O)N[C@H]1CC[C@H](CCN2CCN(c3cc(F)cc(C(F)(F)F)c3)CC2)CC1 [Example 664, 2-Cyano-N-(4-{2-[4-(3-fluoro-5-trifluoromethylphenyl)piperazin-1-yl]ethyl}cyclohexyl)acetamide] as the molecule, how does the melting point read?
**A.** 178 °C

**Q.** With N#CCCCC(=O)N[C@H]1CC[C@H](CCN2CCN(c3cc(F)cc(C(F)(F)F)c3)CC2)CC1 [Example 665, 4-Cyano-N-(4-{2-[4-(3-fluoro-5-trifluoromethylphenyl)piperazin-1-yl]ethyl}cyclohexyl)butanamide] as the molecule, how does the melting point read?
**A.** 163 °C

**Q.** Which melting point does the source give for N#CCCC(=O)N[C@H]1CC[C@H](CCN2CCN(c3cc(C(F)(F)F)ccc3F)CC2)CC1 [Example 668, 3-Cyano-N-(4-{2-[4-(2-fluoro-5-trifluoromethylphenyl)piperazin-1-yl]ethyl}cyclohexyl)propanamide] here?
**A.** 164 °C

**Q.** With O=C(CC(F)(F)F)N[C@H]1CC[C@H](CCN2CCN(c3cc(C(F)(F)F)ccc3F)CC2)CC1 [Example 670, 3,3,3-Trifluoro-N-(4-{2-[4-(2-fluoro-5-trifluoromethylphenyl)piperazin-1-yl]ethyl}cyclohexyl) propanamide] as the molecule, how does the melting point read?
**A.** 177 °C

**Q.** For NC(=O)CC(=O)N[C@H]1CC[C@H](CCN2CCN(c3cc(C(F)(F)F)ccc3F)CC2)CC1 [Example 671, N-(4-{2-[4-(2-Fluoro-5-trifluoromethylphenyl)piperazin-1-yl]ethyl}cyclohexyl)-malonamide], which melting point is on record?
**A.** 185 °C

**Q.** Which melting point does the source give for CCc1ccc(F)c(N2CCN(CC[C@H]3CC[C@H](NC(=O)CC#N)CC3)CC2)c1 [Example 673, 2-Cyano-N-(4-{2-[4-(5-ethyl-2-fluorophenyl)piperazin-1-yl]ethyl}cyclohexyl)acetamide] here?
**A.** 180 °C

**Q.** With CCc1ccc(F)c(N2CCN(CC[C@H]3CC[C@H](NC(=O)CCCC#N)CC3)CC2)c1 [Example 674, 4-Cyano-N-(4-{2-[4-(5-ethyl-2-fluorophenyl)piperazin-1-yl]ethyl}cyclohexyl)butanamide] as the molecule, how does the melting point read?
**A.** 153 °C

**Q.** Which melting point does the source give for COCCCC(=O)N[C@H]1CC[C@H](CCN2CCN(c3cccc(C)c3)CC2)CC1 [Example 675, 4-Methoxy-N-{4-[2-(4-m-tolylpiperazin-1-yl)ethyl]cyclohexyl}butanamide] here?
**A.** 148 °C

**Q.** For COCCCC(=O)N[C@H]1CC[C@H](CCN2CCN(c3ccc(Cl)c(Cl)c3F)CC2)CC1 [Example 684, N-(4-{2-[4-(3,4-Dichloro-2-fluoro-phenyl)piperazin-1-yl]ethyl}cyclohexyl)-4-methoxybutanamide], which melting point is on record?
**A.** 210 °C

**Q.** For CSc1cccc(N2CCN(CCC3CCN(CC(C)=O)CC3)CC2)c1 [Example 686, 1-(4-{2-[4-(3-Methylsulfanyl-phenyl)piperazin-1-yl]ethyl}-piperidin-1-yl)propan-2-one], which melting point is on record?
**A.** 113 °C

**Q.** With N#CCC(=O)N[C@H]1CC[C@H](CCN2CCN(c3ccc(F)c(C#N)c3F)CC2)CC1 [Example 687, 2-Cyano-N-(4-{2-[4-(3-cyano-2,4-difluorophenyl)piperazin-1-yl]ethyl}cyclohexyl)acetamide] as the molecule, how does the melting point read?
**A.** 210 °C

**Q.** For N#CCCCC(=O)N[C@H]1CC[C@H](CCN2CCN(c3ccc(F)c(C#N)c3F)CC2)CC1 [Example 688, 4-Cyano-N-(4-{2-[4-(3-cyano-2,4-difluorophenyl)piperazin-1-yl]ethyl}cyclohexyl)butanamide], which melting point is on record?
**A.** 203 °C

**Q.** Which melting point does the source give for COCCCC(=O)N[C@H]1CC[C@H](CCN2CCN(c3cccc(F)c3C)CC2)CC1 [Example 689, N-(4-{2-[4-(3-Fluoro-2-methylphenyl)piperazin-1-yl]ethyl}cyclohexyl)-4-methoxybutanamide] here?
**A.** 172 °C

**Q.** Which melting point does the source give for CC(=O)CN1CCC(CCN2CCN(c3ccc(F)c(C#N)c3F)CC2)CC1 [Example 690, 2,6-Difluoro-3-(4-{2-[1-(2-oxo-propyl)piperidin-4-yl]ethyl}piperazin-1-yl)benzonitrile] here?
**A.** 108 °C

**Q.** For COCCCC(=O)N[C@H]1CC[C@H](CCN2CCN(c3cc(Cl)cc(Cl)c3)CC2)CC1 [Example 691, N-(4-{2-[4-(3,5-Dichlorophenyl)piperazin-1-yl]ethyl}cyclohexyl)-4-methoxybutanamide], which melting point is on record?
**A.** 184 °C

**Q.** Which melting point does the source give for COCCCC(=O)N[C@H]1CC[C@H](CCN2CCN(c3ccc(F)c(C#N)c3F)CC2)CC1 [Example 692, N-(4-{2-[4-(3-Cyano-2,4-difluorophenyl)piperazin-1-yl]ethyl}cyclohexyl)-4-methoxybutanamide] here?
**A.** 211 °C

**Q.** With CC(=O)CN1CCC(CCN2CCN(c3cc(F)c(F)c(F)c3)CC2)CC1 [Example 697, 1-(4-{2-[4-(3,4,5-Trifluoro-phenyl)-piperazin-1-yl]ethyl}piperidin-1-yl)propan-2-one] as the molecule, how does the melting point read?
**A.** 86 °C

**Q.** Which melting point does the source give for COCCCC(=O)N[C@H]1CC[C@H](CCN2CCN(c3ccc(Cl)cc3)CC2)CC1 [Example 698, N-(4-{2-[4-(4-Chlorophenyl)-piperazin-1-yl]ethyl}cyclohexyl)-4-methoxybutanamide] here?
**A.** 204 °C
